# Patent US20190119200A1, “TERTIARY AMIDES AND METHOD OF USE” (AbbVie Inc., priority 2016, published 2019)
# How the values were obtained:
# LPAR1 = biological target: T1, LPAR1 (Homo sapiens, UniProt Q92633); assay: LPAR1 FLIPR Assay; format: cell-based; conditions: U2OS cells stably expressing LPAR1, LPA (EC80), Calcium 6 FLIPR dye; for Emax: read-out: Maximum Inhibition
# T1 construct: host or cells: U2OS
# Method: U2OS cells stably expressing LPAR1 (Life Technologies #K1519A) were plated at 12000 cells/well in growth medium (McCoy's 5A medium(Life Technologies 16600-082)) with 10% dFBS (Life Technologies 26400-036), 0.1 mM non-essential amino acids, 25 mM HEPES, 1 mM sodium pyruvate, 1% penicillin/streptomycin, 50 μg/mL hygromycin, and 100 μg/mL Geneticin® in black-walled, clear-bottom 384-well plates (Corning #3683) and incubated in humidified 5% CO2 at 37° C. overnight. On the day of the assay, medium was removed and 30 μL of 5% Calcium 6 FLIPR dye in assay buffer-HBSS (Life Technologies #14025) containing 20 mM HEPES (Life Technologies #15630-080) was added to the cells. Cells were incubated at 37° C. in the dark for 2 hours. Compounds were 3-fold serial diluted from 10 mM for 11-points using dimethyl sulfoxide. 1 μL of compound in DMSO was diluted in 82.3 μL assay buffer immediately before the assay. Using a FLIPR® TETRA® system, 15 μL of the (4×) compound solutions were first added to the cells, then 15 μL of LPA (EC80) diluted in of assay buffer supplemented with 0.1% BSA was added 3 minutes later to activate the receptor. Changes in fluorescence were measured at wavelengths of 515-575 nm over the course of the experimental run. IC50 values were calculated from curve fits of the ratio data using a four-parameter logistic Hill equation (Assay Explorer 3.3 Client).
# [1] = test system: LPA-induced MCP-1 in NRK-49F cells; assay: LPA-induced MCP-1 AlphaLISA assay; format: cell-based; conditions: Rattus norvegicus, final LPA 10 μM, 7 hours; for Emax: read-out: Maximum Inhibition
# Method: Two days prior to the experiment, NRK-49F cells were plated at 8,000 cells/well in 100 μL of growth medium [DMEM (Life Technologies #11995) with 5% dFBS (Life Technologies #30067-334), 100 units/mL penicillin/streptomycin (Life Technologies #15140122)] in 96-well clear flat bottom polystyrene TC-treated microplate (Corning® #3599) and incubated in humidified 10% CO2 at 37° C. One day prior to the experiment, the cell medium was removed and serum free medium [100 μL/well, DMEM (Life Technologies #11995) with 0.1% fatty acid free BSA (Sigma #A6003)] was added with continued incubation in humidified 10% CO2 at 37° C. overnight. On the day of the assay, test compounds were 1:3 serially diluted in 100% DMSO using a BioTek Precision™ system and then transferred (equivalent volume of DMSO as controls) to a plate in serum free medium [DMEM with 0.1% fatty acid free BSA] using a Biomek® NX workstation to give a 2× compound solution. The cell culture medium was removed, and cells were pre-treated with 50 μL/well of 2× compound in serum free medium [DMEM with 0.1% fatty acid free BSA] at 37° C. for 30 minutes. Following the incubation, 50 μL/well of 20 μM LPA diluted in serum free medium [DMEM with 0.1% fatty acid free BSA] was added to the cells. Serum free medium [DMEM with 0.1% fatty acid free BSA] was used as substitution for low control wells while 20 µM LPA was added to high control wells and test compound wells. 200 µM LPA was added to EC100 wells. Final DMSO concentration was 1% in every well. Final LPA concentration in test compound wells and high control wells was 10 μM. […] After the incubation, cell supernatant was transferred to a new 96 well polypropylene plate (Greiner #651201) where it was sealed and stored at −80° C. On the detection day, 5 μL of thawed cell supernatant was transferred to a new white opaque 384-well microplate (Perkin Elmer #6007299). An AlphaLISA® mouse/rat CCL2/MCP1, Immunoassay Research kit (PerkinElmer #AL509F) was used. A mixture (20 μL/well) of AlphaLISA® Anti-Analyte Accept beads (10 μg/mL final) and Biotinylated Antibody Anti-Analyte (freshly prepared, 1 nM final) was added. The mixture in the wells was mixed and then incubated at room temperature for 1 hour. Then SA-Donor beads (25 μL/well, 40 μg/mL final) were added giving a final volume of 50 μL/well. The contents of the wells were mixed and then incubated at room temperature for 0.5 hour (protect from light). The plate was read using the default Envision™ Alpha protocol (PerkinElmer). IC50 values were calculated from curve fits of the ratio data using a four-parameter logistic Hill equation (Assay Explorer 3.3 Client).
# T1 sequence (Q92633 whole entry): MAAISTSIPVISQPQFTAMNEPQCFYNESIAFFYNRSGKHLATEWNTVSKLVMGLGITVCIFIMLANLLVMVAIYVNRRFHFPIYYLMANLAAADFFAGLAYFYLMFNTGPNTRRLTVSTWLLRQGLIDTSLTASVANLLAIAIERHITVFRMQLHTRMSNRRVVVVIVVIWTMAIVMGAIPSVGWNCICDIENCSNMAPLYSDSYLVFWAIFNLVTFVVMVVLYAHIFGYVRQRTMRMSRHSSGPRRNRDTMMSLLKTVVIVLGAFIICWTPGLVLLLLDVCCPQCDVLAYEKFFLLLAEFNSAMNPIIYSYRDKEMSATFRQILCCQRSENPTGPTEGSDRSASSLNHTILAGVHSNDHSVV
IC50 (LPAR1) [µM],Emax (LPAR1) [%],IC50 [1] [µM],SMILES,Emax [1] [%]
> 30,10,> 10,"COc1cc(C(=O)N(CCCCC(=O)O)CCc2ccccc2)cc(OC)c1C [Example 95, 5-[(3,5-dimethoxy-4-methylbenzoyl)(2-phenylethyl)amino]pentanoic Acid]",18
0.044,88,2.98,"COc1ccc(C2(C(=O)N(CCCCC(=O)O)CCCc3ccccc3)CCC2)cc1 [Example 86, 5-{[1-(4-methoxyphenyl)cyclobutane-1-carbonyl](3-phenylpropyl)amino}pentanoic Acid]",74
0.05,89,1.63,"CCOc1cc(OCC)cc(C(=O)N(CCCCC(=O)O)CCCc2ccccc2)c1 [Example 18, 5-[(3,5-diethoxybenzoyl)(3-phenylpropyl)amino]pentanoic Acid]",86
0.079,88,4.7,"COc1cc(C(=O)N(CCCc2ccccc2)CC(=O)N[C@@H](Cc2cccs2)C(=O)O)cc(OC)c1C [Example 47, N-(3,5-dimethoxy-4-methylbenzoyl)-N-(3-phenylpropyl)glycyl-3-thiophen-2-ylalanine]",58
0.042,96,1.06,"COc1cc(C(=O)N(CCCCc2nnn[nH]2)CCCc2ccccc2)cc(OC)c1C [Example 166, 3,5-dimethoxy-4-methyl-N-(3-phenylpropyl)-N-[4-(1H-tetrazol-5-yl)butyl]benzamide]",80
> 10,32,> 10,"COc1cc(C(=O)N(CCCc2cc(F)cc(F)c2)CCSCC(=O)O)cc(OC)c1C [Example 125, [(2-{[3-(3,5-difluorophenyl)propyl](3,5-dimethoxy-4-methylbenzoyl)amino}ethyl)sulfanyl]acetic Acid]",53
0.097,92,1.17,"COc1cc(C(=O)N(CCCCC(=O)NS(=O)(=O)C2CC2)CCCc2ccccc2)cc(OC)c1C [Example 119, N-{5-[(cyclopropanesulfonyl)amino]-5-oxopentyl}-3,5-dimethoxy-4-methyl-N-(3-phenylpropyl)benzamide]",80
0.032,87,1.01,"COc1cc(C(=O)N(CCCc2c(F)cccc2F)CCSCC(=O)O)cc(OC)c1C [Example 113, [(2-{[3-(2,6-difluorophenyl)propyl](3,5-dimethoxy-4-methylbenzoyl)amino}ethyl)sulfanyl]acetic Acid]",86
0.047,85,1.55,"COc1ccc(C2(C(=O)N(CCCCC(=O)O)CCCc3cccc(Cl)c3)CC2)cc1 [Example 102, 5-{[3-(3-chlorophenyl)propyl][1-(4-methoxyphenyl)cyclopropane-1-carbonyl]amino}pentanoic Acid]",80
0.085,88,6.17,"COc1ccc(C2(C(=O)N(CCCCC(=O)O)CCCc3ccccc3)CC(=O)C2)cc1 [Example 152, 5-{[1-(4-methoxyphenyl)-3-oxocyclobutane-1-carbonyl](3-phenylpropyl)amino}pentanoic Acid]",64
0.116,97,0.036,"CCCCC(C)(CCCN(CCCc1ccccc1)C(=O)c1cc(OC)c(C)c(OC)c1)C(=O)O (stereo not shown) [Example 97, 2-{3-[(3,5-dimethoxy-4-methylbenzoyl)(3-phenylpropyl)amino]propyl}-2-methylhexanoic Acid]",94
0.046,78,3.19,"COc1cc(OC)cc(C(=O)N(CCCCC(=O)O)CCCc2ccc(C)o2)c1 [Example 133, 5-{(3,5-dimethoxybenzoyl)[3-(5-methylfuran-2-yl)propyl]amino}pentanoic Acid]",68
0.068,75,5.46,"COc1ccc(C2(C(=O)N(CCCCC(=O)O)CCCc3ccccc3)CC2)c(F)c1 [Example 103, 5-{[1-(2-fluoro-4-methoxyphenyl)cyclopropane-1-carbonyl](3-phenylpropyl)amino}pentanoic Acid]",62
> 30,13,> 10,"COc1ccc(C(=O)N(CCCCC(=O)O)CCCc2ccccc2)cc1F [Example 79, 5-[(3-fluoro-4-methoxybenzoyl)(3-phenylpropyl)amino]pentanoic Acid]",36
> 10,47,> 10,"COc1cc(OC)cc(C(=O)N(CCCCC(=O)O)CCCc2ccc(F)cc2)c1 [Example 148, 5-{(3,5-dimethoxybenzoyl)[3-(4-fluorophenyl)propyl]amino}pentanoic Acid]",40
0.081,71,5.44,"COc1ccc(C2(C(=O)N(CCCc3ccccc3)CCOCC(=O)O)CC2)cc1 [Example 87, (2-{[1-(4-methoxyphenyl)cyclopropane-1-carbonyl](3-phenylpropyl)amino}ethoxy)acetic Acid]",62
19.9,62,> 10,"COc1cc(C(=O)N(CCCCC(=O)O)CCCCc2ccccc2)cc(OC)c1C [Example 96, 5-[(3,5-dimethoxy-4-methylbenzoyl)(4-phenylbutyl)amino]pentanoic Acid]",52
> 10,32,> 10,"COc1cc(OC)cc(C(=O)N(CCCCC(=O)O)CCCc2ccccc2Cl)c1 [Example 135, 5-{[3-(2-chlorophenyl)propyl](3,5-dimethoxybenzoyl)amino}pentanoic Acid]",25
> 30,46,3.71,"COc1cc(C(=O)N(CCCc2ccccc2)CCC(=O)O)cc(OC)c1C [Example 67, N-(3,5-dimethoxy-4-methylbenzoyl)-N-(3-phenylpropyl)-beta-alanine]",57
0.084,64,> 8.19,"CCOc1cc(OCC)cc(C(=O)N(CCCCC(=O)O)CCCc2ccc(C)o2)c1 [Example 176, 5-{(3,5-diethoxybenzoyl)[3-(5-methylfuran-2-yl)propyl]amino}pentanoic Acid]",53
0.06,90,4.49,"COc1ccc(C2(C(=O)N(CCCCC(=O)O)CCCc3cccc(F)c3)CC2)cc1 [Example 92, 5-{[3-(3-fluorophenyl)propyl][1-(4-methoxyphenyl)cyclopropane-1-carbonyl]amino}pentanoic Acid]",72
0.065,83,7.05,"COc1cc(C(=O)N(CCCOC(=O)NS(C)(=O)=O)CCCc2ccccc2)cc(OC)c1C [Example 186, 3-[(3,5-dimethoxy-4-methylbenzoyl)(3-phenylpropyl)amino]propyl (methanesulfonyl)carbamate]",54
